From patent publication US20170128483A1, “HOST DEPENDENCY FACTORS AS TARGETS FOR ANTIVIRAL THERAPY” (Ruprecht-Karls-Universitat Heidelberg, priority 2014, published 2017)
Counter-ions that a name gives are not always drawn. Like-named read-outs stand apart in the source and are kept apart here.

Tests used:
[1] = test system: DENV-2; assay: Virus yield inhibition assay, DENV-2 in Huh7 cells, titers by plaque assay; conditions: for Maximum effect on DENV replication (in words) / Emax: Huh7, DENV-2 MOI 0.1, 48 h; for Emax / EC50: Dengue virus; for Emax: DENV2, Huh-7, 48 h
[2] = test system: primary human monocytes; assay: Viability of primary human monocytes (ATP content); assay type: cell-based; conditions: 48 h
[3] = test system: DENV-3; assay: Virus yield inhibition assay, DENV-3 in Huh7 cells; assay type: cell-based, Dengue virus; conditions: 200 μM, Huh7, 48 h
Source text: (§1) Given the only 62-67% of amino acid conservation among DENV serotypes (Kyle & Harris 2008), the different serotypes might not be equally dependent on the same host factors for their replication.

[4] = test system: DENVsg reporter replicon; assay: microbe, parasite or virus in culture; assay type: cell-based, Dengue virus
[5] = Cell viability of Huh7 cells (ATP content / F-Luc activity); conditions: human
[6] = test system: DENVTCP; assay: Time-of-addition with single-round DENVTCP particles in Huh7 cells, Rluc; conditions: 200 μM, readout 48 h
[7] = test system: DENV-1; assay: Virus yield inhibition assay, DENV-1 in Huh7 cells; assay type: cell-based, Dengue virus; conditions: 200 μM, Huh7, 48 h
Source text: as §1

[8] = test system: DENV(GND)sg-R2A; assay type: cell-based, Dengue virus; conditions: 200 μM, initial 10 h of transfection
[9] = test system: DENV-4; assay: Virus yield inhibition assay, DENV-4 in Huh7 cells; assay type: cell-based, Dengue virus; conditions: 200 μM, Huh7, 48 h
Source text: as §1

[10] = test system: DENV-2; assay: Virus yield inhibition, DENV-2 in primary human monocytes, plaque assay; assay type: cell-based; conditions: Dengue virus, DENV2, Monocyte
Method: Primary human monocytes isolated from peripheral blood from healthy donors were infected with DENV-2 at an MOI of 10 PFU/cell in the presence of the drug.
Peripheral blood samples from three healthy donors were collected in EDTA tubes. The blood was then diluted with 2 volumes of DPBS without calcium and without magnesium (PAN Biotech) and carefully layered onto Ficoll-hypaque (PAN Biotech). The blood was then subjected to centrifugation at 700 g, without brakes. The interphase cells containing the peripheral blood mononuclear cells (PBMCs) were aspirated, transferred to a clean tube and washed three times with DPBS. CD14+ monocytes were isolated using MicroBeads conjugated to monoclonal anti-human CD14 antibodies (MACS Miltenyi Biotec) according to the manufacturer's instructions, with some modifications. Briefly, 10 μl of Microbeads were incubated with 1×10^7 cells for 15 min at 4° C. After washing with DPBS magnetic separation of CD14+ monocytes was performed using an autoMACS Separator. The purity of the isolated monocytes (89.8% for donor 1, 94.8% for donor 2 and 97.7% for donor 3) was corroborated by FACS staining using anti-CD14 antibodies.
Identification of host factors using RNAi may depend to a large extent on the cellular system chosen to perform the screen, what argues for the need of testing the selected hit candidates in cellular systems more representative of the infection in nature. […] The impact of the drug on virus production was assessed by plaque assay 48 h after infection.

[11] = molecular target: T1, PPARα (Homo sapiens, UniProt Q07869); conditions: antagonist; cited from earlier work
T1 sequence (Q07869 1-468): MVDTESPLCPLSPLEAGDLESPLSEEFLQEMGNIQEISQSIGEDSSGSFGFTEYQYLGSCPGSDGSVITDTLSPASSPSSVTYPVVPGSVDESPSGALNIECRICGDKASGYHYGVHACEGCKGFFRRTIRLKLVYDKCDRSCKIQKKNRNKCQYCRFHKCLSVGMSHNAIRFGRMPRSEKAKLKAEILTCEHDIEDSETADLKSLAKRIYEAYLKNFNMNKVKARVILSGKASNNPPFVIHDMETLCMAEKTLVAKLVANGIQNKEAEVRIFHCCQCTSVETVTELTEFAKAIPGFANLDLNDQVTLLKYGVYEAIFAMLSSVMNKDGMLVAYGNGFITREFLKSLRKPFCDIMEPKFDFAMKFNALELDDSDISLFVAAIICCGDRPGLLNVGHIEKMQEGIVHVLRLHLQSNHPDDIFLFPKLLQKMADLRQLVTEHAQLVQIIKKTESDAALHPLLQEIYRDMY

[12] = molecular target: T2, PPARγ (Homo sapiens, UniProt P37231); conditions: antagonist; cited from earlier work
T2 sequence (P37231 1-505): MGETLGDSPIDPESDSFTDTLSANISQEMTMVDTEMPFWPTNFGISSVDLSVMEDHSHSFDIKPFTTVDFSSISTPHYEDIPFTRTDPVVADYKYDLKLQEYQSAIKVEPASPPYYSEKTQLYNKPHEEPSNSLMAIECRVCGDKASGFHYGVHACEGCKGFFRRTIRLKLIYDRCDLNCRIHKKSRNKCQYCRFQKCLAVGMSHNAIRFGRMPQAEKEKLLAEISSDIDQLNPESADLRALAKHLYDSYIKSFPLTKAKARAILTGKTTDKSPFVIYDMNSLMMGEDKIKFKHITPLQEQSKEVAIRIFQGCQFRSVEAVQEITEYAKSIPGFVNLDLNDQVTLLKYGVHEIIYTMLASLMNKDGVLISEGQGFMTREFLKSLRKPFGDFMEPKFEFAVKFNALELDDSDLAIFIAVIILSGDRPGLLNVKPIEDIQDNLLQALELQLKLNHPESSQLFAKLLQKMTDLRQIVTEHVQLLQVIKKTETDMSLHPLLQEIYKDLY

[13] = concentration per compound as in Table 1
[14] = read-out: Maximum effect on DENV replication (inhibition), inhibition of virus production, concentration per compound as in Table 1 column 'Concentration used (FIG. 3B)'

SMILES: C=C(C)C1CNC(C(=O)O)C1CC(=O)O (centres unmarked) [Kainic acid monohydrate, 2-Carboxy-3-carboxymethyl-4-isopropenylpyrrolidine]
- Maximum effect on DENV replication (in words) [1, 13]: inactive

SMILES: CN1C2CCC1CC(OC(=O)C(CO)c1ccccc1)C2 (stereo not drawn) [Atropine, α-(Hydroxymethyl)benzeneacetic acid 8-methyl-8-azabicyclo[3.2.1]oct-3-yl ester]
- Maximum effect on DENV replication (in words) [1, 13]: inactive

SMILES: Oc1cc2c(cc1O)CN(C(=S)NCCc1ccc(Cl)cc1)CCC2 [Capsazepine, N-[2-(4-Chlorophenyl)ethyl]-1,3,4,5-tetrahydro-7,8-dihydroxy-2H-2-benzazepine-2-carbothioamide]
- Maximum effect on DENV replication (in words) [1, 13]: inactive

SMILES: O=c1c(-c2ccc(O)cc2)coc2cc(O[C@@H]3O[C@H](CO)[C@@H](O)[C@H](O)[C@H]3O)ccc12 [Daidzin, Daidzein-7-O-β-D-glucopyranoside]
- Maximum effect on DENV replication (in words) [1, 13]: inactive

SMILES: O=C(NCc1ccc2c(c1)OCO2)c1c(Cl)cccc1Cl [Alda-1, N-(1,3-Benzodioxol-5-ylmethyl)-2,6-dichlorobenzamide]
- Maximum effect on DENV replication (in words) [1, 13]: inactive

SMILES: N=C(CCl)NCCC[C@H](NC(=O)c1ccccc1)C(N)=O [Cl-amidine, N-α-benzoyl-N5-(2-chloro-1-iminoethyl)-L-ornithine amide]
- cytotoxicity for primary human monocytes [2]: not cytotoxic
- reduction on virus production ([1]; 200 μM, Huh7, 48 h): 10 fold
- Emax [1, 14]: 92.7%
- EC50 ([1]; DENV2, Huh-7, Huh7 transduced with shNT#2): 17.1 µM
- EC50 ([1]; DENV2, Huh-7, Huh7 transduced with shPADI4#4 (PADI4 silenced)): 1.18 µM
- EC50 ([1]; DENV2, Huh-7, read-out: EC50 ± SD): 215 ± 19 µM
- EC50 ([1]; DENV2, Huh-7, read-out: EC50 ± SD, Huh7-Empty control cell line): 19.3 ± 2.36 µM
- EC50 ([1]; DENV2, Huh-7, read-out: EC50 ± SD, Parental Huh7, 2 h pretreatment, 48 h): 16.1 µM
- inhibition of virus titers ([1]; highest concentration tested, Huh7): up to 100 fold
- reduction on virus production [3]: 10 fold
- luciferase activity vs DMSO-treated cells ([4]; 200 μM, initial 10 h of transfection): no difference in luciferase activity
- EC50 ([4]; Dengue virus, Huh-7, 48 h, read-out: EC50 (R-Luc activity)): 16.5 ± 2.49 µM
- CC50 at 48 h [5]: > 1000 µM
- time of addition after infection up to which inhibitory effect remained significant [6]: up to 8 h
- reduction on virus production [7]: 10 fold
- luciferase activity vs DMSO-treated cells [8]: no difference in luciferase activity
- reduction on virus production [9]: 10 fold
- EC50 ([10]; 48 h, monocytes of Donor 1, MOI 10, 48 h, read-out: EC50): 16.9 µM
- EC50 ([10]; 48 h, monocytes of Donor 2, MOI 10, 48 h, read-out: EC50): 24.6 µM
- EC50 ([10]; 48 h, monocytes of Donor 3, MOI 10, 48 h, read-out: EC50): 22.9 µM
- EC50 ([10]; three donors, read-out: EC50 values among different donors): 17 to 25 µM

SMILES: CC1CCC(C(C)C)C(O)C1 (centres unmarked) [Menthol, 2-Isopropyl-5-methylcyclohexanol]
- Maximum effect on DENV replication (in words) [1, 13]: inactive

SMILES: C[N+](C)(C)CC#CCN1CCCC1=O.[I-] [Oxotremorine M, N,N,N,-trimethyl-4-(2-oxo-1-pyrrolidinyl)-2-butyn-1-ammonium iodide]
- Maximum effect on DENV replication (in words) [1, 13]: inactive

SMILES: COc1ccccc1CNCCCCCCNCCCCCCCCNCCCCCCNCc1ccccc1OC [Methoctramine hydrate, N,N,′-bis[6-[[(2-Methoxyphenyl)methyl]amino]hexyl]-1,8-octane diaminetetrahydrochloride hydrate]
- Maximum effect on DENV replication (in words) [1, 13]: inactive

SMILES: COC(=O)c1sccc1S(=O)(=O)Nc1ccc(Nc2ccccc2)cc1OC [GSK0660, 3-(((2-Methoxy-4-(phenylamino)phenyl)amino)sulfonyl)-2-thio-phenecarboxylic acid methyl ester]
- Emax [1, 14]: ~62%
- IC50 [11]: > 10 µM
- IC50 [12]: > 10 µM

SMILES: COc1ccc(NC(=O)C2C[C@H](C)CC[C@H]2C(C)C)cc1 (stereo partly drawn) [WS-12, (2S,5R)-2-Isopropyl-N-(4-methoxyphenyl)-5-methylcyclohexane carboximide]
- Maximum effect on DENV replication (in words) [1, 13]: inactive

SMILES: Cc1cc(SCc2sc(-c3ccc(C(F)(F)F)c(F)c3)nc2C)ccc1OCC(=O)O [GW0742]
- Emax ([1]; read-out: Maximum effect on DENV replication (enhancement), enhancement of virus production, concentration per compound as in Table 1): ~48%

SMILES: Cl.N=C(N)CCl [2CA, 2-chloroethanimidamide hydrochloride]
- inhibition on virus production ([1]; 50 μM, Huh7, 48 h): 77%
